From patent US20210220450A1, “TREATMENT OF AN IOP CONDITION” (The Research Foundation for The State University of New York, priority 2013, published 2021)

Columns and labels:
MMP-2, MMP-9, MMP-13 [1] = test: MMP expression in PA treated HTM cells (Examples 17, 18); assay type: cell-based
Mmp-2, Mmp-9, Mmp-13 [2] = test: Mmp expression in Tg-MYOCY437H angle ring tissue (Example 19); assay type: in vivo, mouse; settings: 5 days, vs BSA treated eyes
Procedure: Eyes were flash frozen in liquid nitrogen after outflow facility determination and subsequently dissected on ice to obtain the angle ring tissues containing the TM, as previously described (Kumar, Shah et al. 2013). Dissected TM tissues were immersed in RNAlater solution (Invitrogen, Waltham, Mass., USA) and then snap-frozen and stored at −80° C. until RNA extraction. Tissue collected was pooled (four eyes) and homogenized in TRIzol reagent for RNA isolation, per manufacturer's instructions (Life Technologies, Carlsbad, Calif., USA). RNA concentration was determined with a Nanodrop ND-1000 Spectrophotometer (Thermo Scientific, Wilmington, Del., USA). cDNA was synthesized by using High-Capacity cDNA Reverse Transcription Kit (Applied Biosystems, Waltham, Mass., USA) according to manufacturer's protocol. Quantitative real-time PCR (qRT-PCR) was performed by using Green-2-Go qPCR Mastermix-ROX (Bio Basic, Amherst, N.Y., USA) on a QuantStudio 6 Flex thermal cycler (Applied Biosystems, Carlsbad, Calif., USA). mRNA expression of Plat, Plau, Pai-1, Mmp-2, Mmp-9, and Mmp-13 in angle ring tissues was determined. Primers were designed by using Primer-BLAST (https://www.ncbi.nlm.nih.gov/tools/primer-blast/index.cgi?LINK_LOC=BlastHome; in the public domain); primer sequences are listed in Table 2. Primer specificity was confirmed by agarose gel electrophoresis and multiple-sized amplification products were absent on inspection of melting curves. Target mRNA expression values were normalized to the expression levels of Rps11 (ribosomal protein S11). The relative fold change was calculated by using the ΔΔCt method (Hu, Wang et al. 2015). Outliers identified via the Thompson Tau test were removed from analysis.

C57/1B6 mice = test: Outflow facility in TA-treated mice injected intracamerally with AdPLAT (Example 1); assay type: in vivo
Procedure: Methods: Adenoviral vectors carrying cDNA of the sheep PLAT gene and a fluorescent reporter gene (mCherry) (AdPLAT) or with no transgene (AdNull) were created. Transgene expression was driven by the CMV promoter. 3 groups of C57/1B6 mice received either: (1) 20 μl of triamcinolone acetonide (TA) suspension (40 mg/ml) subconjunctivally bilaterally followed immediately by unilateral intracameral injection with 2 μl AdPLAT (3-4×10^12 VG/ml); (2) 20 μl TA subconjunctivally bilaterally followed one week later by unilateral intracameral injection with 2 μl AdPLAT; or (3) 20 μl TA subconjunctivally bilaterally followed immediately by bilateral injection with 2 μl adenovirus AdNull. IOP was measured preterminally. Outflow facility was determined using simultaneous pressure and flow measurements (see FIGS. 2A-2C). After outflow facility measurement, all AdPLAT injected eyes were dissected and viewed under a fluorescent microscope to inspect for mCherry expression in the trabecular meshwork (TM).

C57BL/6J mice = test: Outflow facility in TA and adenovirus treated C57BL/6J mouse eyes (Example 12); assay type: in vivo; settings: TA exposed eyes vs naïve C57BL/6J
Procedure: Steroid, adenoviral and protein injections. Intracameral adenovirus and intravitreal protein injections were performed using a 10 μl Hamilton syringe with 36-gauge stainless steel needles (WPI Inc, Sarasota, Fla., USA) while subconjunctival injections were performed using a 100 μl Hamilton Syringe with 26-gauge needles (Precision Glide, Becton Dickinson & CO, Franklin Lakes, N.J., USA). All injections were performed under isoflurane inhalation anesthesia and topical anesthesia with 0.5% proparacaine. C57BL/6J mice undergoing adenovirus treatment received bilateral injections with 20 μl of triamcinolone acetonide (TA) suspension (40 mg/ml, Kenalog-40; Bristol-Myers Squibb, NY, USA) subconjunctivally immediately prior to the intracameral adenovirus injection. Animals were then divided into three groups (FIG. 10a): […]
Outflow facility determination: Mouse eyes were enucleated immediately after euthanasia. Outflow facility was determined using a constant pressure method, as previously described. […] Flow was constantly measured via a microfluidic flow sensor (0.07-1.5 uL/min, MFS1; Elveflow, Paris, France). […] Any eyes that developed visible leaks during outflow facility determination, or that had pressure-flow correlations with R^2<0.9, were excluded from analysis but were used for RNA quantification.

[3] = system: sheep of the Corriedale breed; test: Steroid-induced IOP elevation in sheep, intravitreal tPA (Examples 3, 4); assay type: in vivo
Procedure: Protocol 1. 8 sheep of the Corriedale breed were treated with prednisolone acetate three times a day in both eyes, leading to elevated IOP. After one week, the animals received intravitreal injections of human recombinant tPA (100, 200, 500 and 1000 μg, two animals each) dissolved in balanced salt solution (BSS) in one eye. IOP was monitored for 19 more days while the animals continued to receive treatment with prednisolone. Periodic slit lamp examination was also performed.
Protocol 2. In a second set of experiments, arginine was added to the BSS vehicle administered to the left eye to control for the relatively high concentration of the amino acid in the commercially available tPA lyophilisate. In these experiments all right eyes received 0.1 mg tPA, which concomitantly delivered 4.23 mg of arginine into the vitreous, and the left eye received this same amount of arginine, absent the tPA. On Day 1, prednisolone treatments were also begun simultaneously on both eyes.
Methods. In this experiment, the inventor sought to detect the effects of tPA treatment on prevention of steroid-induced IOP elevation. In 4 sheep tPA was injected in one eye (100 μg) and they were started on prednisolone acetate three times a day in both eyes. Animals were monitored for 11 days on continuous treatment.

[4] = system: sheep of the Coriedale breed; test: Steroid-induced IOP elevation in sheep, tPA injected into the anterior chamber (Example 9); assay type: in vivo; settings: amount of arginine associated with 0.01 ug tPA, injected alone
Procedure: Methods. Lyophilized tPA, obtained as Acetilyse® from Boehringer Ingelheim S. A. (Buenos Aires) containing arginine, was used. Five sheep of the Coriedale breed were selected. Initially all eyes received instillation of 1% prednisolone 3 times/day for 10 days to elevate their IOP from 10 mm Hg to about 23 mm Hg. Then, 0.0001 μg was injected into one of the eyes and its effect was followed for up to 55:00 hrs while the instillation of prednisolone continued in both eyes. The same protocol was implemented for the 0.001 and 0.01 μg amounts (after extended washout) in the contra lateral eyes. Arginine, which is associated with 0.01 ug tPA, was injected alone and had no effect.

PLAT = PLAT mRNA in HTM cells after prednisolone (Example 8); assay type: cell-based; settings: HTM cells from two donors; as early as 1 hour after prednisolone
From the text: FIG. 8. Relative fold difference of PLAT mRNA from 18S mRNA amounts in HTM cells treated with prednisolone acetate (PA treated) or vehicle (Control) for […].

HTM cells = test: Simulated outflow facility of HTM cells in artificial conventional outflow system (ACOS) (Examples 17, 18); assay type: cell-based; settings: PA treatment
Procedure: HTM cells were treated with 300 nM prednisolone acetate (PA) for 72 h to reduce outflow facility. They were then treated with either tissue plasminogen activator (tPA), non-enzymatically active tPA (NE-tPA) or bovine serum albumin (BSA) and perfused in artificial conventional outflow system (ACOS). Simulated outflow facilities (mean±standard deviation) (μl/min/mmHg/mm^2) was 2.4±0.6×10-1 for PA, 3±1.2×10-1 for PA+BSA, 7±1.2×10-1 for PA+tPA and 5.4±0.9×10-1 for PA+NE-tPA (p<0.0001, ANOVA).
HTM cells were treated with PA+NE-tPA and inhibitors of either LRP1 (RAP) or NMDA receptor (MK-801) and were perfused in ACOS. Simulated outflow facility (meant standard deviation μl/min/mmHg/mm^2) was 5.5±0.7×10-1 for PA+NE-tPA, 2.9±1.3×10-1 for PA+NE-tPA+MK-801, 2.7±1.2×10-1 for PA+NE-tPA+RAP and 3.3±1.3×10-1 for PA+NE-tPA+MK-801+RAP.

[5] = added to PA+NE-tPA, vs PA+NE-tPA treated cells

SMILES: C[C@]12N[C@H](Cc3ccccc31)c1ccccc12 [MK-801, reference compound]
- MMP-2 expression (MMP-2, MMP-9, MMP-13 [1]; [5]): significantly lower
- MMP-9 expression (MMP-2, MMP-9, MMP-13 [1]; [5]): significantly lower

SMILES: O=C([O-])CCCc1ccccc1.[Na+] [PBA, sodium phenylbutarate, reference compound]
- Mmp-2 expression (Mmp-2, Mmp-9, Mmp-13 [2]): no significant difference
- Mmp-9 expression (Mmp-2, Mmp-9, Mmp-13 [2]): higher
- Mmp-13 expression (Mmp-2, Mmp-9, Mmp-13 [2]): did not show any difference

SMILES: CC1(C)O[C@@H]2C[C@H]3[C@@H]4CCC5=CC(=O)C=C[C@]5(C)[C@@]4(F)[C@@H](O)C[C@]3(C)[C@]2(C(=O)CO)O1 [TA, triamcinolone acetonide]
- outflow facility, mean±SD (C57/1B6 mice; TA only eyes, two weeks of TA, n=24): 0.0067±0.0028 μl/min/mmHg
- outflow facility, mean±SD (C57/1B6 mice; contralateral eyes injected with TA alone, concurrent experiment, n=22): 0.0060±0.0025 μl/min/mmHg
- reduction in outflow facility from baseline (C57BL/6J mice): ~46%

SMILES: N=C(N)NCCC[C@H](N)C(=O)O [arginine, reference compound]
- effect of arginine alone on steroid-increased IOP ([3]; 4.23 mg arginine intravitreal, prednisolone): does not alter
- effect of arginine alone on outflow facility ([3]; eye receiving arginine plus prednisolone (OS)): failed to reduce
- effect of arginine alone on IOP [4]: had no effect

SMILES: CC(=O)OCC(=O)[C@@]1(O)CC[C@H]2[C@@H]3CCC4=CC(=O)C=C[C@]4(C)[C@H]3[C@@H](O)C[C@@]21C [prednisolone, prednisolone acetate, reference compound]
- mean (±SD) IOP ([3]; prednisolone for 10 days, baseline 10.2 (±1.1) mmHg): 24.1(±1.6) mmHg
- PLAT expression (PLAT): downregulation
- reduction in outflow facility compared to baseline (HTM cells): ~73%
- MMP-13 mRNA (MMP-2, MMP-9, MMP-13 [1]; PA treated HTM cells): below detectable limits
